This assay concerns drug-resistant Mycobacterium tuberculosis. The note with it: peptide 10 micrograms per ml, seven days.

SMILES strings stand for the structures.

The % inhibition is the drop in the measured response relative to a control, in per cent. A lower % inhibition goes with little suppression.

`CC[C@H](C)[C@H](NC(=O)[C@H](Cc1ccc(O)cc1)NC(=O)[C@H](CCCNC(=N)N)NC(=O)[C@H](CCCNC(=N)N)NC(=O)[C@H](CC(C)C)NC(=O)[C@H](CC(=O)O)NC(=O)[C@H](C)NC(=O)[C@H](C)NC(=O)[C@H](Cc1ccc(O)cc1)NC(=O)[C@H](CCC(N)=O)NC(=O)[C@H](C)NC(=O)[C@H](CCSC)NC(=O)[C@H](CCC(N)=O)NC(=O)[C@H](CCC(=O)O)NC(=O)[C@@H]1CCCN1C(=O)[C@@H](NC(=O)[C@H](C)NC(=O)[C@H](CC(N)=O)NC(=O)[C@H](CC(=O)O)NC(=O)CNC(=O)[C@@H]1CCCN1C(=O)[C@H](Cc1ccc(O)cc1)NC(=O)[C@@H](NC(=O)[C@@H]1CCCN1C(=O)[C@H](CCC(=O)O)NC(=O)[C@H](CC(C)C)NC(=O)[C@@H]1CCCN1C(=O)[C@H](C)N)C(C)C)[C@@H](C)O)C(=O)N[C@@H](CC(N)=O)C(=O)N[C@@H](CCSC)C(=O)N[C@@H](CC(C)C)C(=O)N[C@H](C(=O)N[C@@H](CCCNC(=N)N)C(=O)N1CCC[C@H]1C(=O)N[C@@H](CCCNC(=N)N)C(=O)N[C@@H](Cc1ccc(O)cc1)C(N)=O)[C@@H](C)O` [Pancreatic polypeptide]: the “% inhibition” value amounted to 0.0%.

The values above are taken from patent US20100184677A1, “USE OF THE HUMAN PANCREATIC POLYPEPTIDE AS A THERAPEUTIC AGENT” (priority 2007, published 2010).
